Source: patent US20250235427A1, “5-METHOXY-N,N-[…][…] THE TREATMENT OF SOCIAL/EMOTIONAL […] DETACHMENT” (GH RESEARCH IRELAND LIMITED, priority 2022, published 2025)

Test system: patients with postpartum depression (PPD)
Assay: Clinical trial, inhaled 5-MeO-DMT individualized dosing regimen in postpartum depression (one patient so far)
Procedure: The single-arm, open-label clinical trial will involve 15 adult female patients with clinically diagnosed postpartum depression (PPD).
The second dose (12 mg) will only be administered if: • a. […] The 6 mg dose was safe and well-tolerated according to the investigator, • c. Any psychoactive effects (PsE) of the prior dose have subsided, and • d. Pre-dose vital parameters and forced expiratory volume in one second (FEV1) are in normal range, or if outside of the normal range, are not clinically significant according to the investigator. • 3. Similarly, a third dose (18 mg) will only be administered if: • a. […] The 12 mg dose was safe and well-tolerated according to the investigator, and • c. Any PsE of the prior dose have subsided, and • d. Pre-dose vital parameters and forced expiratory volume in one second (FEV1) are in normal range, or if outside of the normal range, are not clinically significant according to the investigator.
The patients will be assessed for a peak psychedelic experience (based on a patient-scored visual analogue scale, the PE scale), sedation, and other endpoints after dosing. Follow-up visits are planned for Day 1, and Day 7 after the dosing day.

COc1ccc2[nH]cc(CCN(C)C)c2c1 [5-MeO-DMT]
BPRS Disorientation score (Day 7, baseline 1): 1 | BPRS Grandiosity improvement (Day 7, baseline 1): 0 | BPRS Grandiosity score (Day 7, baseline 1): 1 | BPRS Hallucinatory behaviour improvement (Day 7, baseline 1): 0 | BPRS Hallucinatory behaviour score (Day 7, baseline 1): 1 | BPRS Hostility improvement (Day 7, baseline 1): 0 | BPRS Hostility score (Day 7, baseline 1): 1 | BPRS Mannerisms and Posturing improvement (Day 7, baseline 1): 0 | BPRS Mannerisms and Posturing score (Day 7, baseline 1): 1 | BPRS Motor retardation improvement (Day 7, baseline 1): 0 | BPRS Motor retardation score (Day 7, baseline 1): 1 | BPRS Suspiciousness improvement (Day 7, baseline 1): 0 | BPRS Suspiciousness score (Day 7, baseline 1): 1 | BPRS Uncooperativeness improvement (Day 7, baseline 1): 0 | BPRS Uncooperativeness score (Day 7, baseline 1): 1 | BPRS Unusual Thought Content improvement (Day 7, baseline 1): 0 | BPRS Unusual Thought Content score (Day 7, baseline 1): 1 | BPRS Excitement improvement (Day 7, baseline 2): 1 | BPRS Excitement score (Day 7, baseline 2): 1 | MADRS Inability to Feel improvement (Day 7, baseline 3): 3 | MADRS Inability to Feel score (Day 7, baseline 3): 0 | MADRS Lassitude improvement (Day 7, baseline 3): 3 | MADRS Lassitude score (Day 7, baseline 3): 0 | MADRS Pessimistic Thoughts improvement (Day 7, baseline 4): 4 | MADRS Pessimistic Thoughts score (Day 7, baseline 4): 0 | MADRS Reported sadness improvement (Day 7, baseline 4): 4 | MADRS Reported sadness score (Day 7, baseline 4): 0 | BPRS Emotional withdrawal improvement (Day 7, baseline 5): 4 | BPRS Emotional withdrawal score (Day 7, baseline 5): 1 | MADRS Apparent sadness improvement (Day 7, baseline 5): 5 | MADRS Apparent sadness score (Day 7, baseline 5): 0 | MADRS Inner Tension improvement (Day 7, baseline 5): 4 | MADRS Inner Tension score (Day 7, baseline 5): 1 | MADRS Reduced Sleep improvement (Day 7, baseline 5): 5 | MADRS Reduced Sleep score (Day 7, baseline 5): 0 | BPRS Depressive Mood improvement (Day 7, baseline 6): 5 | BPRS Depressive Mood score (Day 7, baseline 6): 1 | BPRS Guilt feelings improvement (Day 7, baseline 6): 5 | BPRS Guilt feelings score (Day 7, baseline 6): 1 | BPRS Somatic Concern improvement (Day 7, baseline 6): 5 | BPRS Somatic Concern score (Day 7, baseline 6): 1 | BPRS Tension improvement (Day 7, baseline 6): 5 | BPRS Tension score (Day 7, baseline 6): 1 | BPRS Anxiety improvement (Day 7, baseline 7): 6 | BPRS Anxiety score (Day 7, baseline 7): 1 | BIMF functional domain Adjustment Δ (Day 7) (Day 7 vs Day 0): 1 | BIMF functional domain Infant Care Δ (Day 7) (Day 7 vs Day 0): 0 | BIMF functional domain Management Δ (Day 7) (Day 7 vs Day 0): 5 | BIMF functional domain Mother-Child Interaction Δ (Day 7) (Day 7 vs Day 0): 2 | BIMF functional domain Psychological Well-being Δ (Day 7) (Day 7 vs Day 0): 9 | BIMF functional domain Self Care Δ (Day 7) (Day 7 vs Day 0): 4 | BIMF functional domain Social Support Δ (Day 7) (Day 7 vs Day 0): 1 | BIMF item 1 (I am a good mother) Δ (Day 7) (Day 7 vs Day 0): 0 | BIMF item 2 (I feel rested) Δ (Day 7) (Day 7 vs Day 0): 2 | BIMF item 3 (I am comfortable with the way I've chosen to feed my baby) Δ (Day 7) (Day 7 vs Day 0): 0 | BIMF item 4 (My baby and I understand each other) Δ (Day 7) (Day 7 vs Day 0): 0 | BIMF item 5 (I am able to relax and enjoy time with my baby) Δ (Day 7) (Day 7 vs Day 0): 1 | BIMF item 6 (There are people in my life that I can trust to care for my baby when I need a break) Δ (Day 7) (Day 7 vs Day 0): 0 | BIMF item 8 (I am getting enough adult interaction) Δ (Day 7) (Day 7 vs Day 0): 0 | BIMF item 9 (I am getting enough encouragement from other people) Δ (Day 7) (Day 7 vs Day 0): 1 | BIMF item 10 (I trust my own feelings (instincts) when it comes to taking care of my baby) Δ (Day 7) (Day 7 vs Day 0): 1 | BIMF item 11 (I take a little time each week to do something for myself) Δ (Day 7) (Day 7 vs Day 0): 1 | BIMF item 12 (I am taking good care of my baby's physical needs) Δ (Day 7) (Day 7 vs Day 0): 0 | BIMF item 13 (I am taking good care of my physical needs) Δ (Day 7) (Day 7 vs Day 0): 1 | BIMF item 14 (I make good decisions about my baby's health and well being) Δ (Day 7) (Day 7 vs Day 0): 0 | BIMF item 15 (My baby and I are getting into a routine) Δ (Day 7) (Day 7 vs Day 0): 1 | BIMF item 16 (I worry about how other people judge me (as a mother)) Δ (Day 7) (Day 7 vs Day 0): 2 | BIMF item 17 (I am able to take care of my baby and my other responsibilities) Δ (Day 7) (Day 7 vs Day 0): 0 | BIMF item 18 (Anxiety or worry often interferes with my mothering ability) Δ (Day 7) (Day 7 vs Day 0): 3 | BIMF item 19 (As time goes on, I am getting better at taking care of my baby) Δ (Day 7) (Day 7 vs Day 0): 1 | BIMF item 20 (I am satisfied with the job I am doing as a new mother) Δ (Day 7) (Day 7 vs Day 0): −1 | BPRS Blunted affect improvement (Discharge, baseline 1): 0 | BPRS Blunted affect score (Discharge, baseline 1): 1 | BPRS Conceptual disorganization improvement (Discharge, baseline 1): 0 | BPRS Conceptual disorganization score (Discharge, baseline 1): 1 | BPRS Disorientation improvement (Discharge, baseline 1): 0 | BPRS Disorientation score (Discharge, baseline 1): 1 | BPRS Grandiosity improvement (Discharge, baseline 1): 0 | BPRS Grandiosity score (Discharge, baseline 1): 1 | BPRS Hallucinatory behaviour improvement (Discharge, baseline 1): 0 | BPRS Hallucinatory behaviour score (Discharge, baseline 1): 1 | BPRS Hostility improvement (Discharge, baseline 1): 0 | BPRS Hostility score (Discharge, baseline 1): 1 | BPRS Mannerisms and Posturing improvement (Discharge, baseline 1): 0 | BPRS Mannerisms and Posturing score (Discharge, baseline 1): 1 | BPRS Motor retardation improvement (Discharge, baseline 1): 0 | BPRS Motor retardation score (Discharge, baseline 1): 1 | BPRS Suspiciousness improvement (Discharge, baseline 1): 0 | BPRS Suspiciousness score (Discharge, baseline 1): 1 | BPRS Uncooperativeness improvement (Discharge, baseline 1): 0 | BPRS Uncooperativeness score (Discharge, baseline 1): 1 | BPRS Unusual Thought Content improvement (Discharge, baseline 1): 0 | BPRS Unusual Thought Content score (Discharge, baseline 1): 1 | BPRS Excitement improvement (Discharge, baseline 2): 1 | BPRS Excitement score (Discharge, baseline 2): 1 | BPRS Emotional withdrawal improvement (Discharge, baseline 5): 4 | BPRS Emotional withdrawal score (Discharge, baseline 5): 1 | BPRS Depressive Mood improvement (Discharge, baseline 6): 5 | BPRS Depressive Mood score (Discharge, baseline 6): 1 | BPRS Guilt feelings improvement (Discharge, baseline 6): 5 | BPRS Guilt feelings score (Discharge, baseline 6): 1 | BPRS Somatic Concern improvement (Discharge, baseline 6): 5 | BPRS Somatic Concern score (Discharge, baseline 6): 1 | BPRS Tension score (Discharge, baseline 6): 1 | BPRS Anxiety improvement (Discharge, baseline 7): 6 | BPRS Anxiety score (Discharge, baseline 7): 1 | ECG, safety laboratory analyses, CADSS (ECG 3 hours, laboratory 7 days, CADSS 3 hours, 1 day and 7 days): unremarkable | changes in vital parameters (shortly after administration): temporary, clinically non-relevant increase in heart rate and blood pressure
